Test: method code SF-AS, from DOI: 10.1248/cpb.24.61
Conditions: pH 7.4

Row | SMILES | logD
1 | CCC(C(=O)c1c(C)n(C)n(-c2ccccc2)c1=O)N(C)C (configuration not stated) | -0.24
2 | Cc1c(C(=O)CN(C)C)c(=O)n(-c2ccccc2)n1C | -0.95
3 | Cc1c(NC(=O)CN(C)C)c(=O)n(-c2ccccc2)n1C | -0.37
4 | Cc1c(NC(N)=O)c(=O)n(-c2ccccc2)n1C | -0.92
5 | Cc1c(C(=O)C(C)N(C)C)c(=O)n(-c2ccccc2)n1C (configuration not stated) | -0.78

Next, values leading:

Row | logD | SMILES
6 | 0.35 | Cc1c(NC(C)C(=O)N(C)C)c(=O)n(-c2ccccc2)n1C (configuration not stated)
7 | 0.69 | Cc1c(N(C)C(C)C(=O)N(C)C)c(=O)n(-c2ccccc2)n1C (configuration not stated)

Source: the SangsterLogP compilation
